{"source": "patent US20240277717A1", "about": "“APPLICATION OF GANCICLOVIR IN PREPAPRATION OF MEDICINE FOR TREATING ALLERGIC RHINITIS” (Union Hospital, Tongji Medical College, Huazhong University …, priority 2023, published 2024)", "system": "patients with the intractable AR", "test": "Interventional non-randomized cohort study of GCV for intractable AR: clinical symptom scores (VAS, ARCT, TNSS)", "format": "in vivo, human", "conditions": "for TNSS after GCV treatment / rhinocnesmus score after GCV treatment / sneezing score after GCV treatment / rhinocleisis score after GCV treatment / rhinorrhea score after GCV treatment / ARCT after GCV treatment / VAS after GCV treatment: 14 days; for ARCT after GCV then routine anti-allergic medicines / TNSS after GCV then routine anti-allergic medicines / VAS after GCV then routine anti-allergic medicines / rhinocleisis score after GCV then routine anti-allergic medicines / rhinocnesmus score after GCV then routine anti-allergic medicines / rhinorrhea score after GCV then routine anti-allergic medicines / sneezing score after GCV then routine anti-allergic medicines: then routine anti-allergic medicines 14 days", "from_the_text": "All patients are recruited from outpatient department of otolaryngology, the patients with AR complain of poor efficacy of routine anti-allergic medicines (nasal glucocorticoid sprays, oral antihistamines, nasal antihistamine sprays and oral leukotriene receptor antagonists). The inclusion and exclusion criteria of recruiting are as follows.\nThe exclusion criteria: (1) patients have viral/bacterial infection symptoms, fevers and/or other systemic manifestations in the past 2 weeks; (2) patients have other nasal diseases, such as nasal polyps or nasal tumors; (3) patients have a history of nasal surgery in the past 6 months; (4) patients are allergic to the GCV; (5) patients are pregnant women and patients are preparing for pregnancy; (6) the patients have severe neutropenia (absolute neutrophil count<0.5×10^9 per liter) or severe thrombocytopenia (platelet count<2.5×10^10 per liter).\nAn interventional non-randomized cohort study is conducted. Selected patients are treated with the routine anti-allergic medicines for 2 weeks to exclude the illusion of poor efficacy due to non-standard medication (combined use of nasal spray hormones and oral antihistamines to exclude treatment, and the selected patients are switched to with another brand of similar medicines if the selected patients have previously used the above medicines but no effect).\nThe selected patients are grouped according to responses to the routine anti-allergic medicines. If the routine anti-allergic medicines treatments are effective, the selected patients are classified as a common AR group; if ineffective, the selected patients are defined as intractable AR patients. The intractable AR patients are treated with the GCV for 2 weeks (oral, 500 milligrams per time (mg/time) twice a day for the patients≥14 years old; 250 mg/time twice a day for the patients<14 years old). If the GCV treatments are ineffective, the patients are classified as a GCV ineffective group; if effective, the patients are classified as GCV effective group. After 2 weeks of the GCV treatment, the patients in the GCV effective group, if total nasal symptom score (TNSS)≥4 or visual analogue scale (VAS)≥3 centimeters (cm) after the GCV treatment, […], conversely, the GCV treatment ends. The nasal symptoms are evaluated at each follow-up. In this situation, nasal secretion smears, nasal secretions, nasal scraping epithelial cells and peripheral blood are collected.\nThe visual analogue scale (VAS): the severity of all comprehensive symptoms is assessed by the VAS, ranging from 0 (no symptoms) to 10 centimeters (most severe and imaginable symptoms). Allergic rhinitis and its impact on asthma (ARIA) 2008 guideline classification: “mild” AR=0-3 centimeters, “moderate” AR=3.1-7 centimeters, “severe” AR=7.1-10 centimeters.\nAllergic rhinitis control test (ARCT) is a self-administered questionnaire on AR control verified by Demoly et al. It consists of five questions with a score of 1-5 points for each question scored and a total score of 5-25 points. The intractable AR is defined as patients with ARCT score<20 points after 2 weeks of treatment.\nNasal symptom score: rhinocleisis, rhinocnesmus, sneezing, rhinorrhea are scored separately. No symptoms=0; mild (mild symptoms, easy to tolerate)=1; moderate (obvious symptoms, annoying, but tolerable)=2; severe (symptoms are not tolerable, affecting daily life or sleep)=3. The total nasal symptom score (TNSS) is the sum of all nasal symptom scores, ranging from 0 to 12.", "key": {"[1]": {"conditions": "Case 1, GCV 250 mg/time twice a day, before 1"}, "[2]": {"conditions": "Case 1, GCV 250 mg/time twice a day, before 3"}, "[3]": {"conditions": "Case 2, GCV 500 mg/time twice a day, before 2"}, "[4]": {"conditions": "Case 2, GCV 500 mg/time twice a day, before 7"}, "[5]": {"conditions": "Case 2, GCV 14 days, then nasal spray hormone plus oral antihistamines 14 days"}, "[6]": {"conditions": "Case 3, GCV 250 mg/time twice a day, before 3"}, "[7]": {"conditions": "Case 4, GCV 500 mg/time twice a day, before 1"}, "[8]": {"conditions": "Case 5, GCV 500 mg/time twice a day, before 3"}}}
{"smiles": "Nc1nc(O)c2ncn(COC(CO)CO)c2n1", "note": "[GCV, Ganciclovir]", "values": [{"measurement": "TNSS after GCV treatment", "setting": "Case 1 (person one), GCV 250 mg/time twice a day, before 8", "result": 3, "unit": "points"}, {"measurement": "rhinocnesmus score after GCV treatment", "setting": "[1]", "result": 1, "unit": "points"}, {"measurement": "sneezing score after GCV treatment", "setting": "[1]", "result": 0, "unit": "points"}, {"measurement": "rhinocleisis score after GCV treatment", "setting": "[2]", "result": 1, "unit": "points"}, {"measurement": "rhinorrhea score after GCV treatment", "setting": "[2]", "result": 1, "unit": "points"}, {"measurement": "ARCT after GCV treatment", "setting": "Case 1, GCV 250 mg/time twice a day, before 5", "result": 21, "unit": "points"}, {"measurement": "VAS after GCV treatment", "setting": "Case 1, GCV 250 mg/time twice a day, before 8", "result": 4.5, "unit": "cm"}, {"measurement": "ARCT after GCV then routine anti-allergic medicines", "setting": "Case 1, GCV 14 days", "result": 24, "unit": "points"}, {"measurement": "TNSS after GCV then routine anti-allergic medicines", "setting": "Case 1, GCV 14 days", "result": 2, "unit": "points"}, {"measurement": "VAS after GCV then routine anti-allergic medicines", "setting": "Case 1, GCV 14 days", "result": 2.5, "unit": "cm"}, {"measurement": "rhinocleisis score after GCV then routine anti-allergic medicines", "setting": "Case 1, GCV 14 days", "result": 1, "unit": "points"}, {"measurement": "rhinocnesmus score after GCV then routine anti-allergic medicines", "setting": "Case 1, GCV 14 days", "result": 0, "unit": "points"}, {"measurement": "rhinorrhea score after GCV then routine anti-allergic medicines", "setting": "Case 1, GCV 14 days", "result": 1, "unit": "points"}, {"measurement": "sneezing score after GCV then routine anti-allergic medicines", "setting": "Case 1, GCV 14 days", "result": 0, "unit": "points"}, {"measurement": "rhinocleisis score after GCV treatment", "setting": "[3]", "result": 2, "unit": "points"}, {"measurement": "rhinocnesmus score after GCV treatment", "setting": "[3]", "result": 2, "unit": "points"}, {"measurement": "rhinorrhea score after GCV treatment", "setting": "[3]", "result": 0, "unit": "points"}, {"measurement": "sneezing score after GCV treatment", "setting": "[3]", "result": 0, "unit": "points"}, {"measurement": "ARCT after GCV treatment", "setting": "[4]", "result": 20, "unit": "points"}, {"measurement": "VAS after GCV treatment", "setting": "[4]", "result": 4, "unit": "cm"}, {"measurement": "TNSS after GCV treatment", "setting": "Case 2, GCV 500 mg/time twice a day, before 8", "result": 4, "unit": "points"}, {"measurement": "ARCT after GCV then anti-allergic medicines", "setting": "[5]", "result": 25, "unit": "points"}, {"measurement": "TNSS after GCV then anti-allergic medicines", "setting": "[5]", "result": 1, "unit": "point"}, {"measurement": "VAS after GCV then anti-allergic medicines", "setting": "[5]", "result": 2, "unit": "cm"}, {"measurement": "rhinocleisis score after GCV then anti-allergic medicines", "setting": "[5]", "result": 1, "unit": "point"}, {"measurement": "rhinocnesmus score after GCV then anti-allergic medicines", "setting": "[5]", "result": 0, "unit": "point"}, {"measurement": "rhinorrhea score after GCV then anti-allergic medicines", "setting": "[5]", "result": 0, "unit": "point"}, {"measurement": "sneezing score after GCV then anti-allergic medicines", "setting": "[5]", "result": 0, "unit": "point"}, {"measurement": "rhinocleisis score after GCV treatment", "setting": "[6]", "result": 2, "unit": "points"}, {"measurement": "rhinocnesmus score after GCV treatment", "setting": "[6]", "result": 1, "unit": "points"}, {"measurement": "rhinorrhea score after GCV treatment", "setting": "[6]", "result": 3, "unit": "points"}, {"measurement": "sneezing score after GCV treatment", "setting": "[6]", "result": 3, "unit": "points"}, {"measurement": "ARCT after GCV treatment", "setting": "Case 3, GCV 250 mg/time twice a day, before 5", "result": 22, "unit": "points"}, {"measurement": "VAS after GCV treatment", "setting": "Case 3, GCV 250 mg/time twice a day, before 10", "result": 5, "unit": "cm"}, {"measurement": "TNSS after GCV treatment", "setting": "Case 3, GCV 250 mg/time twice a day, before 12", "result": 9, "unit": "points"}, {"measurement": "ARCT after GCV then routine anti-allergic medicines", "setting": "Case 3, GCV 14 days", "result": 25, "unit": "points"}, {"measurement": "TNSS after GCV then routine anti-allergic medicines", "setting": "Case 3, GCV 14 days", "result": 3, "unit": "points"}, {"measurement": "VAS after GCV then routine anti-allergic medicines", "setting": "Case 3, GCV 14 days", "result": 2.5, "unit": "cm"}, {"measurement": "rhinocleisis score after GCV then routine anti-allergic medicines", "setting": "Case 3, GCV 14 days", "result": 1, "unit": "point"}, {"measurement": "rhinocnesmus score after GCV then routine anti-allergic medicines", "setting": "Case 3, GCV 14 days", "result": 0, "unit": "point"}, {"measurement": "rhinorrhea score after GCV then routine anti-allergic medicines", "setting": "Case 3, GCV 14 days", "result": 1, "unit": "point"}, {"measurement": "sneezing score after GCV then routine anti-allergic medicines", "setting": "Case 3, GCV 14 days", "result": 1, "unit": "point"}, {"measurement": "ARCT after GCV treatment", "setting": "Case 4, GCV 500 mg/time twice a day", "result": 24, "unit": "points"}, {"measurement": "rhinocnesmus score after GCV treatment", "setting": "[7]", "result": 0, "unit": "point"}, {"measurement": "sneezing score after GCV treatment", "setting": "[7]", "result": 0, "unit": "point"}, {"measurement": "rhinorrhea score after GCV treatment", "setting": "Case 4, GCV 500 mg/time twice a day, before 2", "result": 1, "unit": "point"}, {"measurement": "rhinocleisis score after GCV treatment", "setting": "Case 4, GCV 500 mg/time twice a day, before 3", "result": 1, "unit": "point"}, {"measurement": "TNSS after GCV treatment", "setting": "Case 4, GCV 500 mg/time twice a day, before 7", "result": 2, "unit": "points"}, {"measurement": "VAS after GCV treatment", "setting": "Case 4, GCV 500 mg/time twice a day, before 9", "result": 1.5, "unit": "cm"}, {"measurement": "nasal symptoms after GCV then nasal spray hormone", "setting": "Case 4, GCV 14 days, then 7 days of the nasal spray hormone", "result": "disappear completely"}, {"measurement": "rhinocnesmus score after GCV treatment", "setting": "Case 5, GCV 500 mg/time twice a day, before 0", "result": 0, "unit": "point"}, {"measurement": "rhinorrhea score after GCV treatment", "setting": "Case 5, GCV 500 mg/time twice a day, before 1", "result": 1, "unit": "point"}, {"measurement": "rhinocleisis score after GCV treatment", "setting": "[8]", "result": 1, "unit": "point"}, {"measurement": "sneezing score after GCV treatment", "setting": "[8]", "result": 0, "unit": "point"}, {"measurement": "ARCT after GCV treatment", "setting": "Case 5, GCV 500 mg/time twice a day, before 5", "result": 24, "unit": "points"}, {"measurement": "TNSS after GCV treatment", "setting": "Case 5, GCV 500 mg/time twice a day, before 7", "result": 2, "unit": "points"}, {"measurement": "VAS after GCV treatment", "setting": "Case 5, GCV 500 mg/time twice a day, before 10", "result": 2.2, "unit": "cm"}, {"measurement": "nasal symptom (rhinocleisis, rhinocnesmus, sneezing, rhinorrhea) scores before and after GCV treatment (FIG. 2)", "setting": "GCV effective group", "result": "significantly improved"}, {"measurement": "ARCT, VAS and TNSS scores during diagnosis and treatment (FIGS. 1A-1C)", "setting": "GCV effective group n=26, after 2 weeks GCV", "result": "significantly ameliorates the nasal symptoms"}, {"measurement": "nasal symptoms after re-treatment with previously ineffective anti-allergic medicines following GCV", "setting": "n=15 with TNSS≥4 or VAS≥3 cm after 2 weeks GCV, then anti-allergic medicines 2 weeks", "result": "could further reduce the nasal symptoms"}, {"measurement": "intractable AR patients ineffective after the GCV treatment", "setting": "oral GCV 2 weeks, 14/40, ineffective = ARCT<20", "result": 35, "unit": "%"}]}
